The results in this text go back to ChEMBL document CHEMBL1125588, “Quinazoline antifolate thymidylate synthase inhibitors: bridge modifications and conformationally restricted analogues in the C2-methyl series” (J Med Chem, 1991).

A value given as a limit tells only on which side of the number the result lay.

As usually defined, the IC50 is the midpoint of a concentration-inhibition curve.

One test concerns the target Thymidylate synthase (Mus musculus, UniProt P07607). The experiment in a line: In vitro inhibition against L1210 thymidylate synthase (TS).
For test [1], the system named is L1210. Put plainly: Tested for the concentration to inhibit 50% of L1210 cell growth in culture. Type of test: functional, cell-based. The settings on record: Mus musculus.
Test [2] concerns L1210. The experiment in a line: Tested for inhibition of L1210 cell growth in presence of dThd and expressed as % of control. The format is functional, Mus musculus. Also noted: concentration or dose not given beside the values.
The test system of test [3] is L1210. The experiment in a line: Compound was tested for the concentration to inhibit 50% of L1210:1565 cell growth. Type of test: functional, cell-based. The settings on record: Mus musculus.
Test [4] is described as follows: Ratio of IC50 of L1210:1565 cells to that of IC50 of L1210 cells. Type of test: functional.

Chain of Thymidylate synthase (P07607 whole entry): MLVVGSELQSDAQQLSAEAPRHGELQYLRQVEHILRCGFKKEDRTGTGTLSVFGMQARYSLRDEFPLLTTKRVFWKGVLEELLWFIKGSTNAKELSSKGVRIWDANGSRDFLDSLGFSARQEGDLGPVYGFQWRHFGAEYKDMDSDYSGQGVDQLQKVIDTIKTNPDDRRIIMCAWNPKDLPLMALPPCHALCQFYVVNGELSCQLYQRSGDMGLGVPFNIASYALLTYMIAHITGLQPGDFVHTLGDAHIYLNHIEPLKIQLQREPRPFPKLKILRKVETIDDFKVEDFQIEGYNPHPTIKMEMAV

With `Cc1nc(O)c2cc(COc3ccc(C(=O)N[C@@H](CCC(=O)O)C(=O)O)cc3)ccc2n1`, the IC50 is 21.5 µM against Thymidylate synthase and 0.04 µM in the test with L1210 [1]. For the same molecule, the Control with L1210 [2] turned out to be 75%.
For `Cc1nc(O)c2cc(NC(C)c3ccc(C(=O)N[C@@H](CCC(=O)O)C(=O)O)cc3)ccc2n1` (stereo not given in full), the results for the IC50 against Thymidylate synthase and in the test on L1210 [1] were 4.3 µM and 0.8 µM, respectively. In addition, the Control in the test with L1210 [2] amounted to 93%.
The molecule `C#CCN(Cc1ccc(C(=O)N[C@@H](CCC(=O)O)C(=O)O)cc1)c1ccc2nc(C)nc(O)c2c1` showed an IC50 in the test on L1210 [1] of 2.4 µM. Further, the Control with L1210 [2] is 89%.
On to `Cc1nc(O)c2cc(N(CCF)Cc3ccc(C(=O)N[C@@H](CCC(=O)O)C(=O)O)s3)ccc2n1`, for which the values for the concentration for half-maximal inhibition (IC50) at Thymidylate synthase and in the test on L1210 [1] were 9.9 µM and 0.38 µM, respectively. The Control with L1210 [2] is on record as 95%.
Consider `Cc1nc(O)c2cc(CSc3ccc(C(=O)N[C@@H](CCC(=O)O)C(=O)O)cc3)ccc2n1`, for which the IC50 is 4.66 µM on Thymidylate synthase and 0.42 µM in the test on L1210 [1]. For the same molecule, in the test with L1210 [2], the Control turned out to be 99%.
For `CCN(Cc1ccc(C(=O)N[C@@H](CCC(=O)O)C(=O)O)s1)c1ccc2nc(C)nc(O)c2c1`, in that order: 8.42 µM, 0.66 µM and 94%.
`Cc1nc(O)c2cc(NCc3ccc(C(=O)N[C@@H](CCC(=O)O)C(=O)O)cn3)ccc2n1`: the IC50 on Thymidylate synthase worked out at 16.7 µM; in the test with L1210 [1], 0.06 µM.
With `Cc1nc(O)c2cc(Cn3ccc4cc(C(=O)N[C@@H](CCC(=O)O)C(=O)O)ccc43)ccc2n1`, the IC50 against Thymidylate synthase worked out at 3.27 µM; in the test with L1210 [1], 0.036 µM. Besides, the Control with L1210 [2] is listed as 90%.
With `Cc1nc(O)c2cc(N(C)Cc3ccc(C(=O)N[C@@H](CCC(=O)O)C(=O)O)cc3)ccc2n1`, the 50% inhibitory concentration (IC50) with L1210 [3] amounted to 7.7 µM; at Thymidylate synthase, 2.62 µM; in the test on L1210 [1] it was 0.7 µM. Further, in test [4], the Ratio turned out to be 11. In the test with L1210 [2], the Control is 93%.
For the molecule `Cc1nc(O)c2cc(Sc3ccc(C(=O)N[C@@H](CCC(=O)O)C(=O)O)cc3)ccc2n1`, the IC50 on Thymidylate synthase is 10.3 µM; in the test on L1210 [1] it was more than 20 µM.
For `Cc1nc(O)c2cc(N(C)C(C)c3ccc(C(=O)N[C@@H](CCC(=O)O)C(=O)O)cc3)ccc2n1` (stereo not given in full), in that order: 1.07 µM and 0.35 µM.
For `Cc1nc(O)c2cc(N(CCO)Cc3ccc(C(=O)N[C@@H](CCC(=O)O)C(=O)O)s3)ccc2n1`, the IC50 is 13.3 µM at Thymidylate synthase and 6.2 µM in the test on L1210 [1]. The Control in the test on L1210 [2] was 91%.
The matching figures for `C#CCN(Cc1ccc2nc(C)nc(O)c2c1)c1ccc2c(c1)CN([C@@H](CCC(=O)O)C(=O)O)C2=O`: 0.15 µM, 0.17 µM and 96%.
Turning to `Cc1nc2ccc(CN(C)c3ccc(C(=O)N[C@@H](CCC(=O)O)C(=O)O)cc3)cc2c(=O)[nH]1`, the IC50 with L1210 [3] was found to be 4.2 µM. The Ratio in test [4] came to 38.
As to `Cc1nc(O)c2cc(NCc3ccc(C(=O)N[C@@H](CCC(=O)O)C(=O)O)cc3)ccc2n1`, the IC50 at Thymidylate synthase is 8.28 µM; in the test with L1210 [1], 0.07 µM. Also, in the test on L1210 [2], the Control was 93%.
As to `Cc1nc2ccc(CNc3ccc(C(=O)N[C@@H](CCC(=O)O)C(=O)O)s3)cc2c(=O)[nH]1`, the IC50 at Thymidylate synthase stood at 24.8 µM; with L1210 [1], 3 µM.
Take `Cc1nc(=O)c2cc(CN(C)c3ccc(C(=O)N[C@@H](CCC(=O)O)C(=O)O)s3)ccc2[nH]1` [RALTITREXED]: the values for the IC50 in the test on L1210 [3] and in the test with L1210 [1] were 0.96 µM and 0.007 µM, respectively. Besides, in test [4], the Ratio is 137.
Turning to `Cc1nc(O)c2cc(N(C)Cc3ccc(C(=O)N[C@@H](CCC(=O)O)C(=O)O)s3)ccc2n1`, the IC50 in the test on L1210 [3] came to 2.1 µM; against Thymidylate synthase, 3.82 µM; with L1210 [1], 0.3 µM. Further, the Ratio in test [4] came to 7.
As for `Cc1nc(O)c2cc(NCc3ccc(C(=O)N[C@@H](CCC(=O)O)C(=O)O)s3)ccc2n1`, the IC50 on Thymidylate synthase turned out to be 6.98 µM; in the test with L1210 [1], 0.026 µM. In addition, the Control in the test on L1210 [2] is 88%.
For `Cc1nc(O)c2cc(CN(C)c3ccc4c(c3)CN([C@@H](CCC(=O)O)C(=O)O)C4=O)ccc2n1`, the IC50 against Thymidylate synthase worked out at 0.72 µM; in the test with L1210 [1], 1.3 µM. Also, the Control in the test on L1210 [2] turned out to be 90%.
The matching figures for `C=CCN(Cc1ccc(C(=O)N[C@@H](CCC(=O)O)C(=O)O)s1)c1ccc2nc(C)nc(O)c2c1`: 14.1 µM, 0.54 µM and 95%.
Take `Cc1nc(O)c2cc(CNc3ccc4c(c3)CN([C@@H](CCC(=O)O)C(=O)O)C4=O)ccc2n1`: the IC50 against Thymidylate synthase came to 8.27 µM; in the test on L1210 [1], 3 µM.
Turning to `Cc1nc(O)c2cc(NCc3ccc(C(=O)N[C@@H](CCC(=O)O)C(=O)O)cc3F)ccc2n1`, the IC50 was 6.73 µM against Thymidylate synthase and 0.053 µM with L1210 [1]. The Control in the test with L1210 [2] is recorded as 94%.
